Source: PMC6535779, “A Specific, Glycomimetic Langerin Ligand for Human Langerhans Cell Targeting” (ACS Central Science, 2019)

Experiments:
[1] = target: T1, Langerin extracellular domain (ECD) (Homo sapiens, UniProt Q9UJ71); experiment: 19F R2-filtered NMR reporter displacement assay with Langerin; assay type: binding; details: for Ki: 19F R2-filtered NMR, 0.1 mM reporter ligand 24, pH 7.8, 25 °C; for Relative potency, Langerin: calculated utilizing the KI value determined for GlcNAc
T1 construct: the trimeric Langerin extracellular domain (ECD) was expressed insolubly in E; made in house
T1 sequence (Q9UJ71 65-328 limits assumed): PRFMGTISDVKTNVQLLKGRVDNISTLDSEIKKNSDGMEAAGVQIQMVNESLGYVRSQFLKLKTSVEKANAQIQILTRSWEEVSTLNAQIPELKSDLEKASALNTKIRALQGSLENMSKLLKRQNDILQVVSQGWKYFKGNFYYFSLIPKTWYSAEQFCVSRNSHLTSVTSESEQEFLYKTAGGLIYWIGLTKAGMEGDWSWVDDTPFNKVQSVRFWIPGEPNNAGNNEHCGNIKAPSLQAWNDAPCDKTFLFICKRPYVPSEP
Protocol: Receptor Expression and Purification
General remarks. Codon-optimized genes for the expression of Langerin and DC-SIGN in E. coli were purchased from GenScript and Life Technologies, respectively. All growth media or chemicals used for receptor expression and purification were purchased from Carl Roth if not stated otherwise.
Langerin extracellular domain. Expression and purification were conducted as previously published14. Briefly, the trimeric Langerin extracellular domain (ECD) was expressed insolubly in E. coli BL21* (DE3) (Invitrogen). Following enzymatic cell lysis, inclusion bodies were harvested and subsequently solubilized. The sample was centrifuged and the Langerin ECD was refolded overnight via rapid dilution. Next, the sample was dialyzed overnight, centrifuged and purified via mannan-agarose affinity chromatography (Sigma Aldrich). For 19F R2-filtered NMR and lipid-enzyme-linked lectin assay (Lipid-ELLA) experiments, the buffer was exchanged to 25 mM Tris with 150 mM NaCl and 5 mM CaCl2 at pH 7.8 using 7 kDa size-exclusion desalting columns (Thermo Scientific). For […]
D2O, 150 mM NaCl and 5 mM CaCl2 at pH 7. The concentration of Langerin ECD was determined via UV spectroscopy (A280, 0.1% = 2.45). Purity and monodispersity of Langerin ECD samples were analyzed via SDS PAGE and DLS. […]
General remarks. 19F R2-filtered NMR experiments were conducted on a PremiumCompact 600 MHz spectrometer (Agilent). Spectra were processed in MestReNova and data analysis was performed with OriginPro 13, 15. Experiments with the Langerin ECD were performed at a receptor concentration of 50 μM in 25 mM Tris with 10% D2O, 150 mM NaCl and 5 mM CaCl2 at pH 7.8 and 25° C. […]
10% D2O, 150 mM NaCl and 5 mM CaCl2 at pH 7.0 and 25°C. TFA served as an internal reference at a concentration of 50 μM. Apparent relaxation rates R2,obs for the reporter ligand were determined using the CPMG pulse sequence as previously published3-5. […]
KI determination. KI values were determined as previously published for Langerin3. Briefly, titration experiments were conducted at a concentration of 0.1 mM of reporter ligand 24 at five competitor concentrations [I]T. Samples were prepared via serial dilution. For the acids GlcNS, GlcNAc-6-OS and GlcNS-6-OS the pH values were monitored and adjusted to 7.8 if necessary.
General remarks. 15N HSQC NMR experiments were conducted on an Ascend 700 MHz spectrometer (Bruker)16. Spectra were processed in NMRPipe17. Data analysis was performed using CCPN Analysis, MatLab and OriginPro15, 18-19. Experiments with the Langerin CRD were performed at a receptor concentration of 100 μM in 25 mM HEPES with 10% D 2O, 150 mM NaCl and 5 mM CaCl2 at pH 7.8 and 25° C. DSS-d6 served as an internal reference at a concentration of 100 μM. Spectra were referenced via the internal spectrometer reference. Spectra were acquired with 128 increments and 32 scans per increments for 150 μl samples in 3 mm sample tubes. The relaxation delay d1 was set to 1.4 s and the acquisition time tacq was set to 100 ms. The W5 Watergate pulse sequence was used for solvent suppression20. The used resonance assignment for the Langerin CRD has been published […]
KD determination. KD values were determined in titration experiments at six ligand concentrations [L]T. Samples were prepared via serial dilution. Chemical shift perturbations CSPs for Langerin CRD resonances in the fast or fast-to-intermediate exchange regime observed upon titration with ligand were calculated via Equation 121.

Langerin^– THP-1 cells = experiment: Colorimetric cytotoxicity assay, Langerin- THP-1 cells; assay type: cell-based, human; details: doxorubicin encapsulated in liposomes or free, 48 h
Protocol: (§1) the PEG-DSPE was substituted with glycolipids 22 or 23 at varying ratios. PEG-DSPE (3.0 kDa, NOF Europe), 22 or 23 were dissolved in DMSO, added to a round bottom flask and lyophilized. Next, DSPC (NOF Europe) and cholesterol (Sigma Aldrich) were dissolved in chloroform, added to the test tube and the solvent was removed in vacuo. The residue was dissolved in PBS and the mixture was vortexed and sonicated repeatedly until a homogeneous suspension was obtained. Unilamellar liposomes were prepared using a pore extruder (Avanti Polar Lipids) with polycarbonate membranes of 800, 400, 200 and finally 100 nm pore size (Avanti Polar Lipids). […]
(§2) The Lipid-ELLA was conducted as previously published35. […] Binding of the Langerin ECD was detected via absorbance A450 measurements at 450 nm using a SpectraMax spectrometer (Molecular Devices) in three independent titrations.
(§3) CO2. […] After centrifugation at 400 g for 5 min the supernatant was analyzed in the TNF-α ELISA. […]
(§4) To assess the cytotoxicity of doxorubicin-containing liposomes with THP-1 cells, 50,000 cells per well were added to 96 well microtiter plates (Corning) and incubated in presence of liposomes at a given total lipid concentration [Lipid]T in a final volume of 100 μl for 48 h at 37°C and 5% CO2. Cell viability was analyzed using CellTiter 96 (Promega) by measuring formazan absorbance at 490 nm. […]

Langerin^+ THP-1 cells = experiment: Colorimetric cytotoxicity assay, Langerin+ THP-1 cells; assay type: cell-based, human; details: doxorubicin encapsulated in liposomes or free, 48 h
Protocol: as §1, §2, §3, §4

| SMILES | Ki [1] | Relative potency, Langerin [1] | affinity increase over Man-based reference molecule 21 ([1]; from KI values, Langerin, b47 words it as over natural glycans) | killing of Langerin^– THP-1 cells (Langerin^– THP-1 cells) | killing of Langerin^+ THP-1 cells (Langerin^+ THP-1 cells) |
| --- | --- | --- | --- | --- | --- |
| OC[C@H]1OC(O)[C@H](O)[C@@H](O)[C@@H]1O (stereo partly shown) [Glc] | 21 ± 4 mM | 0.20 |  |  |  |
| Cc1ccc(S(=O)(=O)N[C@H]2[C@H](OCCN)O[C@H](CO)[C@@H](O)[C@@H]2O)cc1 [compound 15] |  |  | 42 fold |  |  |
| COc1cccc2c1C(=O)c1c(O)c3c(c(O)c1C2=O)C[C@@](O)(C(=O)CO)C[C@@H]3O[C@H]1C[C@H](N)[C@H](O)[C@H](C)O1 [free doxorubicin, doxorubicin] |  |  |  | killed both Langerin^+ and Langerin^– cells | killed both Langerin^+ and Langerin^– cells |

More lines, in order of falling Ki [1], values ahead:

| Ki [1] | Relative potency, Langerin [1] | affinity increase over Man-based reference molecule 21 ([1]; from KI values, Langerin, b47 words it as over natural glycans) | SMILES | killing of Langerin^– THP-1 cells (Langerin^– THP-1 cells) | killing of Langerin^+ THP-1 cells (Langerin^+ THP-1 cells) |
| --- | --- | --- | --- | --- | --- |
| 4.1 ± 0.7 mM | 1.0 |  | CC(=O)N[C@@H]1[C@@H](O)[C@H](O)[C@@H](CO)O[C@H]1O [GlcNAc, N-acetyl glucosamine] |  |  |
| 1.4 ± 0.2 mM | 2.9 |  | O=S(=O)(O)N[C@H]1C(O)O[C@H](CO)[C@@H](O)[C@@H]1O (stereo partly shown) [GlcNS, glucosamine-2-sulfate] |  |  |
| 0.6 ± 0.1 mM | 6.8 |  | CC(=O)N[C@H]1C(O)O[C@H](COS(=O)(=O)O)[C@@H](O)[C@@H]1O (stereo partly shown) [GlcNAc-6-OS, N-acetyl glucosamine-6-sulfate] |  |  |
| 0.28 ± 0.06 mM | 14 |  | O=S(=O)(O)N[C@H]1C(O)O[C@H](COS(=O)(=O)O)[C@@H](O)[C@@H]1O (stereo partly shown) [GlcNS-6-OS, glucosamine-2-sulfate-6-sulfate] |  |  |
